Data on 3 molecules can be found in ChEMBL document CHEMBL6071143, “Discovery of a potent melatonin-based inhibitor of quinone reductase-2 with neuroprotective and neurogenic properties” (Eur J Med Chem, 2024).

Converted amounts (≈) assume the structure as drawn. The source made the active and inactive calls. The rule behind the calls is not given here.

In series [1] the target is T1, Ribosyldihydronicotinamide dehydrogenase [quinone] (Homo sapiens, UniProt P16083).
T1 sequence (P16083 whole entry): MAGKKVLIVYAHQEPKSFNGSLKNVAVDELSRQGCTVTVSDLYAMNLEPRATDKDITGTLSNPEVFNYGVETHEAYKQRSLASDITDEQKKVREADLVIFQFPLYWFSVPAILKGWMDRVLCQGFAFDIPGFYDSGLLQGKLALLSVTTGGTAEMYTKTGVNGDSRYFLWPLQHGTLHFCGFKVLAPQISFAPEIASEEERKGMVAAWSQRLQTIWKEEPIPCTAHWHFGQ
The series can be described thus: Inhibition of human QR2 expressed in Escherichia coli preincubated with BNAH or NRH followed by menadione addition by FLUOstar plate reader assay.

Series [2] can be described thus: Antioxidant activity assessed as oxygen radical scavenging by measuring trolox equivalents preincubated for 15 mins followed by AAPH addition and measured after 80 mins by fluorescence plate reader assay. It counts as functional. As to conditions: time 95.0 min.
Series [3] in a line: Octanol-water partition coefficient, logD of the compound at pH 1.2. It counts as physicochemical.
Series [4] is described as follows: Octanol-water partition coefficient, logD of the compound at pH 5. It counts as physicochemical.
Series [5] concerns NSC. Description: Neurogenic activity in C57BL/6 mouse primary NSCs assessed as increase in number of MAP-2 cells at 10 uM incubated for 10 days by DAPI staining based fluorescence confocal microscopy. As to conditions: time 10.0 day. The series is classed as functional, cell-based.
Series [6] relates to SH-SY5Y. The series can be described thus: Cytotoxicity against human SH-SY5Y cells at 1 to 100 uM incubated for 24 hrs by MTT method. It counts as toxicity, cell-based. The conditions noted are these: dose 1-100 µM. On the technique in general: Tetrazolium assays rely on reduction of a dye to a coloured formazan, in cell work by metabolically active cells.
The nature of series [7]: Octanol-water partition coefficient, logD of the compound at pH 6.5. The series is classed as physicochemical.
A short description of series [8]: Octanol-water partition coefficient, logD of the compound at pH 7.4. The series is classed as physicochemical.
Series [9] is described as follows: Displacement of 2-[125I]iodomelatonin from human MT1R transfected in CHO cells incubated for 30 mins. It counts as cell-based.
In series [10] the target is T2, Amine oxidase [flavin-containing] A (Homo sapiens, UniProt P21397).
T2 sequence (P21397 whole entry): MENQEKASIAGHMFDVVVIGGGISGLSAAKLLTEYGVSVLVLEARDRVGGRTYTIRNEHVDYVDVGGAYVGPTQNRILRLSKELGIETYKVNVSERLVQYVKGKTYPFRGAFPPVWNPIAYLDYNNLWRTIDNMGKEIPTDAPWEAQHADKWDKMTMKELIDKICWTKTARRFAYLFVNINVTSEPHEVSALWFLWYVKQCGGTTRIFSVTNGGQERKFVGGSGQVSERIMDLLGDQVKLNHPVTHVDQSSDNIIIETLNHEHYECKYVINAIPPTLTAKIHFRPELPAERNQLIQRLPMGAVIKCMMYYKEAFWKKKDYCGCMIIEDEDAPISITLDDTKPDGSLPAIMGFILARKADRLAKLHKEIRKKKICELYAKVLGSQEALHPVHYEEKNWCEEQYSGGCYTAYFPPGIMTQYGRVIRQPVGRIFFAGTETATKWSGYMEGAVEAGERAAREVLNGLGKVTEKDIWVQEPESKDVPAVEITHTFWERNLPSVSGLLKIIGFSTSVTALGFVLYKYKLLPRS
The series can be described thus: Inhibition of human MAO-A expressed in baculovirus infected BTI insect cells preincubated for 15 mins followed by p-tyramine addition by amplex red reagent based fluorescence microplate reader assay.

A short description of series [11]: Octanol-water partition coefficient, logD of the compound at pH 9. The series is classed as physicochemical.
The nature of series [12]: Octanol-water partition coefficient, logD of the compound at pH 11. It counts as physicochemical.
Series [13] in a line: Octanol-water partition coefficient, logD of the compound at pH 6. The series is classed as physicochemical.
For series [14], the system named is SH-SY5Y. Description: Neuroprotective activity against R/O induced human SH-SY5Y cells oxidative stress model assessed as cell survival at 1 uM preincubated for 24 hrs followed by rotenone oligomycin A addition and measured after 24 hrs by MTT assay. It counts as functional. As to conditions: read-out: Survival.
Series [15] in a line: Octanol-water partition coefficient, logD of the compound at pH 10. The series is classed as physicochemical.
A short description of series [16]: Aqueous solubility of compound incubated for 24 hrs by UV-spectra analysis. The series is classed as physicochemical.
Series [17] is described as follows: Octanol-water partition coefficient, logD of the compound at pH 4. The series is classed as physicochemical.
For series [18], the system named is NSC. Description: Neurogenic activity in C57BL/6 mouse primary NSCs assessed as increase in number of TuJ-1 cells at 10 uM incubated for 10 days by DAPI staining based fluorescence confocal microscopy. The series is classed as functional, cell-based. The conditions noted are these: time 10.0 day.
Series [19] in a line: Octanol-water partition coefficient, logD of the compound at pH 12. The series is classed as physicochemical.
Series [20] in a line: Octanol-water partition coefficient, logD of the compound at pH 8. The series is classed as physicochemical.
Series [21] can be described thus: Displacement of 2-[125I]iodomelatonin from human MT2R transfected in CHO cells incubated for 30 mins. The series is classed as cell-based.
Series [22] addresses T3, Amine oxidase [flavin-containing] B (Homo sapiens, UniProt P27338).
T3 sequence (P27338 whole entry): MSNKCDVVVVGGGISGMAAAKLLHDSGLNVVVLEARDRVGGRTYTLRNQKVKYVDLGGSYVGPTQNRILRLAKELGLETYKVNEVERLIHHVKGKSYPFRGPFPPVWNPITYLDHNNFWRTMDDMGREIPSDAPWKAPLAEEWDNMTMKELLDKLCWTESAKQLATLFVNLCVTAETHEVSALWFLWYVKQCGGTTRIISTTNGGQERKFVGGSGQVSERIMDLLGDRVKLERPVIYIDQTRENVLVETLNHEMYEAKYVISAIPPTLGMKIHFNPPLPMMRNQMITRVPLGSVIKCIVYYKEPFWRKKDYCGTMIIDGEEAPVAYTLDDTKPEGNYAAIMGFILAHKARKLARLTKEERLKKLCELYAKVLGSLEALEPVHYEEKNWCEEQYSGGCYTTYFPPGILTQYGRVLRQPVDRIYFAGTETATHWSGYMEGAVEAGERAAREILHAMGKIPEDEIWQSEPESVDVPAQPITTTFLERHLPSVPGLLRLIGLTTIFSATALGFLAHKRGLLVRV
Description: Inhibition of human MAO-B expressed in baculovirus infected BTI insect cells preincubated for 15 mins followed by p-tyramine addition by amplex red reagent based fluorescence microplate reader assay. The series is classed as cell-based.

Series [23] in a line: Octanol-water partition coefficient, logD of the compound at pH 7. It counts as physicochemical.
Series [24] is described as follows: Octanol-water partition coefficient, logD of the compound at pH 1. The series is classed as physicochemical.
The nature of series [25]: Octanol-water partition coefficient, logD of the compound at pH 3. It counts as physicochemical.
The subject of series [26] is SH-SY5Y. The series can be described thus: Neuroprotective activity against R/O induced human SH-SY5Y cells oxidative stress model assessed as increase in cell survival preincubated for 24 hrs followed by rotenone oligomycin A addition and measured after 24 hrs by MTT assay. It counts as functional, cell-based. The conditions noted are these: dose 0.01-10 µM, time 48.0 hrs.

Series [27] has as its target T4, Polyunsaturated fatty acid 5-lipoxygenase (Homo sapiens, UniProt P09917).
T4 sequence (P09917 whole entry): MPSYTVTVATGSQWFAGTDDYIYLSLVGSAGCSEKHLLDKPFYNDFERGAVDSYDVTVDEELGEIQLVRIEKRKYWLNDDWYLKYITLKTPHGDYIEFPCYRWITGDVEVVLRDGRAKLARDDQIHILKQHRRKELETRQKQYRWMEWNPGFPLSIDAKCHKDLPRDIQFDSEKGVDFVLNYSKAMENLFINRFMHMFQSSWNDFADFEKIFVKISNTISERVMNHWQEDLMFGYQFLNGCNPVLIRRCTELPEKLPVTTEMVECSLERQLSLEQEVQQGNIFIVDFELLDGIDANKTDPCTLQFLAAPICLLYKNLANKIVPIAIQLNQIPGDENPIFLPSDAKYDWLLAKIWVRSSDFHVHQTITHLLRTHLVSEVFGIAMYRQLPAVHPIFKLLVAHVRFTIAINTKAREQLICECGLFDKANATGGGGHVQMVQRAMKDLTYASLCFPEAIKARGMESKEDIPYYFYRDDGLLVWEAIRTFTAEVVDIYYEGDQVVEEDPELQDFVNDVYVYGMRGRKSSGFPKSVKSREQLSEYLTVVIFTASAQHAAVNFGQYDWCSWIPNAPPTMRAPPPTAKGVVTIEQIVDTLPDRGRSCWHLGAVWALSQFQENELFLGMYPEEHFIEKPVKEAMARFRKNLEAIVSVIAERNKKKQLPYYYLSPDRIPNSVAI
The series can be described thus: Inhibition of human LOX-5 preincubated for 10 mins followed by AA addition and measured after 20 mins in presence of ATP by fluorescence based assay.

Another series has as its system CHO. The series can be described thus: Displacement of 2-[125I]iodomelatonin from human MT1R transfected in CHO cells at 10 uM incubated for 30 mins relative to control. It counts as cell-based.
Series [28] can be described thus: Octanol-water partition coefficient, logD of the compound at pH 2. It counts as physicochemical.
Series [29] can be described thus: Dissociation constant, pKa of compound. The series is classed as physicochemical.

By IC50 is commonly meant the point on the concentration scale where inhibition reaches its midpoint. Consider `COc1ccc2c(n1)c(CCNC(=O)c1ccco1)c1n2Cc2cccnc2-1`, for which the IC50 in series [1] came out at 5 nM.
As usually defined, the logD is lipophilicity at a set pH, counting ionised and neutral species. Read a low logD as a more hydrophilic compound. The term Ki denotes the equilibrium dissociation constant of an inhibitor or competing ligand from its target. Lower therefore signals tighter binding. Broadly, the solubility is how much of the substance goes into solution per volume. The term pKa denotes the pH at which an ionisable group is half protonated. As to `COc1ccc2c(c1)CC(c1c[nH]c3ccc(OC)cc13)N2` (stereo unspecified), the Activity in [2] was 2.3; with SH-SY5Y [6], “Non-Toxic”; in the series on SH-SY5Y [26], “Dose-Dependent Effect”; in the series on CHO, 58%. Further, the logD was found to be 1.65 in series [3]; 2.97 in [4]; 3.3 in series [7]; 3.31 in series [8]; 3.31 in series [11]; 3.31 in [12]. In addition, the logD in [13] amounted to 3.26; in series [15] it was 3.31; in series [17], 2.28; in series [19] it was 3.31; in series [20], 3.31; in series [23] it was 3.31. In addition, the logD in series [24] was determined as 1.66; in [25] it was 1.78; in series [28], 1.67. The outcome in the series with NSC [5] and with NSC [18] was Active. Besides, the Ki in [9] is about 10000 nM; in [21], 620 nM. Further, the IC50 in [10] is 2540 nM; in [22] it was 3690 nM; in series [27] it was 5300 nM. In the series with SH-SY5Y [14], the viability at 1 µM turned out to be 50%. The molecule also returned a solubility at 24 h in series [16] of 0.0329 mM (≈ 9.68 µg/mL). Also, the pKa in series [29] worked out at 5.26.
As for `COc1ccc2[nH]cc(CCNC(C)=O)c2c1` [MELATONIN], the Activity in series [2] was 2.3; with SH-SY5Y [6] it was “Non-Toxic”. For the same molecule, the Ki was found to be 0.27 nM in series [9] and 0.13 nM in series [21]. Moreover, in the series with SH-SY5Y [14], the viability at 1 µM was determined as 43%. Besides, in [16], the solubility at 24 h came to 6.64 mM (≈ 1540 µg/mL).
